# Experiments:
# [1] = test system: Fatigue-Symptomatik bei Post-Covid-Syndrom; assay: Further study / case series Pat. 1-5: Bell-Score and sleep need in post-Covid syndrome; assay type: in vivo, Patienten
# Source text: (§1) Die Bell-score (oder skala) ist ein Massstab der Behinderung bei ME & CFS. Auch für Long Covid-Patient:innen ist sie geeignet. Die Bell-Skala ist individuell, da jeder Patientinnen eine unterschiedliche Belastungsintoleranz aufweist und das Erleiden von schweren Symptomen in Ruhe verhältnismässig unterschiedlich sein kann.
# Es wurde eine weitere Studie an einer Patientengruppe durchgeführt.
# Die Prävalenz eines Post-Covid-Syndroms (PCS) liegt bei 10-15 % nach SARS-COV-2-Infektion, neben spezifischen Organerkrankungen treten vielfältige funktionelle Beschwerden auf, vorrangig eine Fatigue-Symptomatik. Diese ist gekennzeichnet durch persistierende Müdigkeit, Schwäche, kognitive Defizite sowie vermehrtem Schlafbedürfnis. In dieser Studie bzw. Fallserie wird der Effekt von Amifampridin bei Patienten mit PCS beschrieben, die unter unphysiologisch gesteigertem Schlafbedürfnis sowie eingeschränkter Kognition litten. Zur Evaluation wurde der Bell-Score verwendet, der auf die Einschränkung der Vigilanz, körperlichen Belastbarkeit und Berufstätigkeit fokussiert.
# [2] = test system: Fatigue-Symptomatik nach Covid-Infektion; assay: Off-label case reports (Fall 1-3) in fatigue after Covid infection; assay type: in vivo, Patienten
# Source text: (§2) In den nachfolgend genannten Anwendungsbeispielen wurde 3,4-Diaminopyridin Amifamprindin (Formulierung als Fertigarzneimittel) verabreicht. Im Rahmen der doppelt-blind Studie wurden gleich aussende Kapseln mit Amifampridin oder Placebo apothekenseitig verblindet zubereitet, wobei nur apothekenseitig bekannt war welche Kapseln Wirkstoff oder Placebo enthielten.
# Ruhebedürfnis bis zu 20 Stunden pro Tag (brain fog) sowie ausgeprägter Konzentrationsschwäche.
# Im Fall 2 wird eine Patientin beschrieben, die ebenfalls unter einer gravierenden Fatigue-Symptomatik nach Covid-Infektion 5/22 litt, eine zuzuordnende neurologische oder internistische Grunderkrankung bestand nicht. […] Die nachfolgenden Labor- und EKG-Kontrollen zur Erfassung substanzassoziierter Komplikationen waren unauffällig.
# Im Fall 3 wird ein Patient beschrieben, der nach zweimaliger Covid-Infektion unter Fatigue-Symptomatik mit einem Schlafbedürfnis bis zu 2 x 9 Stunden pro Tag litt.
# [3] = test system: Fatigue-Symptomatik nach SARS-COV-2-Infektion; assay: Patients 2.1 to 2.5: Bell-Score and sleep need with Amifampridin (Fig. 1 and 2); assay type: in vivo, Patienten
# Source text: as §1
# Die nachfolgenden Dosierungen der Patienten 2.1 bis 2.5 und die veränderten Bell-Sore Werte sowie das Schlafbedürfnis in Stunden sind in den Figuren 1 und 2 dargestellt (Fig. 1 Bells-Sore mit und ohne Amifampridin, Patienten 2.1 bis 2.5, Fig. 2: kumulierte Schlafzeit in 24 h).
# [4] = test system: Lambert-Eaton-Myasthenie-Syndrom (LEMS); settings: cited from earlier work
# [5] = test system: Fatigue-Symptomatik nach SARS-COV-2-Infektion; assay: Double-blind withdrawal trial, verum and placebo for 3 days each; assay type: in vivo, Patienten; settings: Pat. 2.1; on Amifampridin at start of verum phase (4 x 5 mg per day, days 1-3)
# Description: as §2
# Bei Pat. 2.1 und 2.2 waren zur Rekonvaleszenz eine Dauermedikation mit jeweils 20 mg Amifampridin pro Tag erforderlich und boten damit Voraussetzungen für einen doppelt-blinden Auslassversuch über jeweils 3 Tage.
# Pat. 2.1 mit Verum an Tagen 1-3, nachfolgend Placebo an den Tagen 4-6: Pat. (Pat. 2.1) mit Bell-Score 90 begann bereits mit Amifampridin, wie vorstehend beschrieben, und setzte diese mit Blister mit 6 Tagesdosen je Tag ein Fach mit Kapseln für 3 Tage mit je 4 mal 5 mg Amifampridin fort. Die Dosierung betrugt jeweils für 3 Tage Placebo mit je 4mal Placebo-Kapseln für Patient 1 und 2 (Verum und Placebo).
# [6] = test system: Fatigue-Symptomatik bei MS-Patienten; settings: described in the literature; cited from earlier work
# [7] = Pat. 5 (LEMS), 3 or 4 x 5 mg as daily dose
# [8] = Pat. 2.5 (LEMS), initial 3 x 5 mg
smiles,measurement,setting,value
"Nc1ccncc1N [Amifampridin, Pyridin-3,4-diamin]",Schlafbedürfnis,"[1]; Pat. 1, after 3 intakes of 5 mg over 24 h, before 12",7 Stunden / 24h
same,Bell-Score,"[1]; Pat. 1, after 3 intakes of 5 mg over 24 h, before 20 to 40",100
same,Vigilanz,"[1]; Pat. 2, after 3 doses of 5 mg",uneingeschränkte Vigilanz
same,Schlafbedürfnis,"[1]; Pat. 2, after 3 doses of 5 mg, before 12","7,5 Stunden /24 h"
same,Bell-Score,"[1]; Pat. 2, after 3 doses of 5 mg, before 40",100
same,Schlafbedürfnis,"[1]; Pat. 3, after one intake of 5 mg, before 11 to 12",7-9 Stunden
same,Bell-Score,"[1]; Pat. 3, after one intake of 5 mg, before 40",100
same,duration of the effect,"[1]; Pat. 3, one intake of 5 mg",~36 Stunden
same,Bell-Score,"[1]; Pat. 4, 3 x 5 mg over 24 h, before 20, Post-Covid-Myokarditis",50
same,Fatigue,[1]; [7],sistierte die Fatigue
same,muskuläre Belastbarkeit,[1]; [7],gebesserte muskuläre Belastbarkeit
same,Schlafbedürfnis,"[1]; Pat. 5 (LEMS), 3 or 4 x 5 mg as daily dose, before 16 to 18",8-9 Stunden / 24h
same,Fatigue-Symptomatik,"[1]; patient group of the further study, Post-Covid-Syndrom",reduzierte Fatigue-Symptomatik
same,muskuläre Defizite,[2]; Fall 1,umgehende Besserung
same,Fatigue-Symptomatik,"[2]; Fall 1, since Covid infection, sleep/rest need up to 20 Stunden pro Tag before",schlagartige Besserung
same,Labor- und EKG-Kontrollen zur Erfassung substanzassoziierter Komplikationen,[2]; Fall 2,unauffällig
same,Fatigue-Symptomatik,"[2]; Fall 2, 5 mg",komplette Besserung
same,Konzentrationsfähigkeit,"[2]; Fall 2, 5 mg",vollständiger Restitution
same,zuzuordnende Nebenwirkung,"[2]; Fall 2, 5 mg",leichte periorale Parästhesien
same,Fatigue,"[2]; Fall 2, Tagesdosis 3 x 5 mg",sistiert die vorbestehende Fatigue vollständig
same,Konzentrationsfähigkeit,"[2]; Fall 3, 5 mg",schlagartigen Besserung
same,Nebenwirkung (periorale Parästhesien),"[2]; Fall 3, 5 mg",transiente periorale Parästhesien mit sehr geringer Intensität
same,Schlaf- und Ruhebedürfnis,"[2]; Fall 3, 5 mg",physiologischem
same,Schlafbedürfnis,"[3]; Pat. 2.1, after single intake of 5 mg, before 12",7 Stunden / 24h
same,Bell-Score,"[3]; Pat. 2.1, after single intake of 5 mg, before 20 to 40",100
same,duration of the effect,"[3]; Pat. 2.2, 5 mg",~36 Stunden
same,Schlafbedürfnis,"[3]; Pat. 2.2, after 5 mg, before 11-12",7-9 Stunden
same,Bell-Score,"[3]; Pat. 2.2, after 5 mg, before 40",80
same,Vigilanz,"[3]; Pat. 2.3, after 5 mg",uneingeschränkte Vigilanz
same,Schlafbedürfnis,"[3]; Pat. 2.3, after 5 mg, before 12","7,5 Stunden /24 h"
same,Bell-Score,"[3]; Pat. 2.3, after 5 mg, before 40",100
same,Bell-Score in Bezug auf die muskulären Defizite,"[3]; Pat. 2.5 (LEMS), 3 x 20 mg plus 5 mg if needed (60 to 70 mg per day)",ca. 20
same,Fatigue,[3]; [8],sistierte die Fatigue
same,muskuläre Belastbarkeit,[3]; [8],gebesserte muskuläre Belastbarkeit
same,Bell-Score,"[3]; Pat. 2.5 (LEMS), initial 3 x 5 mg, before 10",80
same,Schlafbedürfnis,"[3]; Pat. 2.5 (LEMS), initial 3 x 5 mg, before 16-18",8-9 Stunden / 24h
same,Bell-Score,"[3]; Patientin 2.4, after 5 mg, before 20, Post-Covid-Myokarditis",50
same,koindizierte Fatigue,"[4]; LEMS-Patienten, stated as known",Besserung
same,Bell-Score,[5],90
"Nc1ccncc1N [Amifampridine Phosphate (Firdapse), Amifampridine Phosphate]",koinzidente Fatigue,"[4]; LEMS, 20 bis 80 mg als Tagesdosen, J Clin Neuromuscul Dis. 2019",Besserung einer koinzidenten Fatigue
Nc1ccncc1 [Fampridin],begleitende Fatigue-Symptomatik,[6],Besserung
